In patent publication US11787850B2, “Peptidic TGF-beta antagonists” (priority 2015, dated 2023):

Tested on: TGF-β1-induced PAI-1 protein production in A431 cells
Assay: Western blot for PAI-1 in A431 cells
Type: cell-based
Details: for inhibition of TGF-β1-induced PAI-1 protein production, peptide treated with DMSO / inhibition of TGF-β1-induced PAI-1 protein production, peptide in Tris left untreated: 100 pM TGF-β1, 18 hours; for inhibition of TGF-β1-induced PAI-1 protein production, peptide treated with DMSO: 0.5% DMSO (FIG. 9); for inhibition of TGF-β1-induced PAI-1 protein production, peptide in Tris left untreated: no DMSO (FIG. 9)
Description: FIG. 7 illustrates that the small molecular weight CD109-based peptide P16 (but not P11 or P16-1) inhibits TGF-β1-induced PAI-protein production. A431 cells were treated without (lane 1) or with 100 pM of TGF-β1 (lanes 2-6) in the absence (lane 2) or presence of 10 nM of P11 (11 aa peptide, lane 3), P16 (16 aa peptide, lane 4), P16-1 (scrambled peptide of 16 aa, lane 5) or Tris buffer (buffer, lane 6) for 24 hrs. Cell lysates were analyzed by Western blot for PAI-1 ([…]) protein levels and normalized to GAPDH protein levels (loading control). In the conditions tested, P16 (but not P11) inhibited TGF-β1-induced PAI-1 expression.
A431 cells were treated for 18 hours without (−) or with (+) 100 pM TGF-β1 in the presence or absence of Peptide X or P16. The peptides were previously dissolved in Tris buffer and left untreated or treated with DMSO prior to addition to the cells. Cell lysates were analyzed by Western blot for PAI-1 (plasminogen activator inhibitor-1) protein expression (top panel) and GAPDH served as a loading control (bottom panel). PAI-1 was not detected in untreated cells (lane 1).
A431 cells were grown in 6-well plates to 70-80% confluency and serum-starved overnight. Cells were washed with PBS and treated with or without TGF-β1 in presence or absence of various CD109-based peptides as indicated in the figure legends. Cells were solubilized with 500 μl of lysis buffer (50 mM Tris, pH 7.5, 150 mM NaCl, 50 mM NaF, 50 mM β-glycerophosphate, 1 mM sodium orthovanadate, 1 mM dithiothreitol, 5 mM EDTA, pH 8.0, 1% Nonidet P-40, 10% glycerol, 10 μM phenylmethylsulfonyl fluoride, 200 μg/ml bovine serum albumin, 1 μg/ml leupeptin, […] soybean trypsin inhibitor, 10 μg/ml benzamide, and 2 μg/ml pepstatin) for 30 min at 4° C. with mild agitation. Cell lysates were collected and centrifuged for 10 min at 10,000×g. The supernatants were collected and protein concentrations were determined using the Bio-Rad protein assay kit. Lysates containing equivalent protein concentrations were mixed with 0.2 volume of 5× electrophoresis sample buffer containing 5% β-mercaptoethanol and boiled for 5 min. Samples were resolved on 7.5% SDS-polyacrylamide gels and transferred to nitrocellulose membranes. Membranes were blocked for 3 h in blocking buffer (30 mM Tris, pH 7.5, 150 mM NaCl, and 0.05% (w/v) Tween 20™ (Tris-buffered saline/Tween) containing 5% (w/v) skim milk powder). The blot was incubated overnight at 4° C. with a 1:1000 dilution of anti-PAI-1 antibody (BD Biosciences). Blots were washed with Tris-buffered saline/Tween and incubated for 45 min at room temperature with a 1:5000 dilution of secondary antibody conjugated to horseradish peroxidase (Pierce). Chemiluminescence detection of the immune complexes was performed using the ECL system (Amersham Biosciences) according to the manufacturer's instructions. The membranes were stripped and reprobed with an anti-GAPDH antibody to confirm equal protein loading.
A431 cells were treated without (lane 1) or with 100 pM of TGF-β1 (lanes 2-6) in the absence (lane 2) or presence of 10 nM of P11 (11 aa peptide, lane 3), P16 (16 aa peptide, lane 4), P16-1 (scrambled peptide of 16 aa, lane 5) or Tris buffer (buffer, lane 6) for 24 hrs. Cell lysates were analyzed by Western blot for PAI-1 ([…]) protein levels and normalized to GAPDH protein levels (loading control).
A431 squamous cell carcinoma cells were treated for 18 hours without (−) or with (+) 100 pM TGF-β1 in the presence or absence of Peptide X or P16. The peptides were dissolved in Tris buffer and left untreated or treated with 0.5% DMSO prior to addition to the cells. Cell lysates were analyzed by Western blot for PAI-1 ([…]) protein expression (top panel) and GAPDH served as a loading control (bottom panel).

Sequence	inhibition of TGF-β1-induced PAI-1 protein production, peptide treated with DMSO	inhibition of TGF-β1-induced PAI-1 protein production, peptide in Tris left untreated	inhibition of TGF-β1-induced PAI-1 protein production (10 nM peptide, 100 pM TGF-β1, 24 hrs (FIG. 7))
ETWIWLDTNMGSRIYQ [Peptide P16]	did not enhance	inhibited	inhibited
LGSSPHVRKHFPETWIWLDTNMGSRIYQEFEVTVPDSITS (Peptide X)	inhibited	did not	
